Test results taken from US12459951B2, “Compounds that interact with RAS superfamily proteins for treatment of cancers, inflammatory diseases, rasopathies, and fibrotic disease” (SHY Therapeutics, LLC, priority 2022, dated 2025).
Where a name gives a salt, the structure may show the parent alone.

Experiments:
KRas G12C mutant = test: Ras GTP Binding Domain Inhibition Assay (Ras Superfamily Assay); settings: 20 μM compound; for KRas G12C mutant + SOS: % inh.: with SOS; for KRas G12C mutant: % inh.: without SOS
Summary of the method: (§1)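 Ni-plate capture of His-tagged protein (10-30 μg/mL, o/n 4° C); cpd 20 μM or dilution series, 1% DMSO, 3 h RT ± Sos 556-1049 last h; 100 nM Cy-labelled GTP 45 min RT; 3× wash; fluorescence read.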

Rho-A = target: T1, Rho-A (Homo sapiens, UniProt P61586); test: as above; settings: read-out: Rho-A: % inh..
T1 construct: made in house
T1 sequence (P61586 whole entry): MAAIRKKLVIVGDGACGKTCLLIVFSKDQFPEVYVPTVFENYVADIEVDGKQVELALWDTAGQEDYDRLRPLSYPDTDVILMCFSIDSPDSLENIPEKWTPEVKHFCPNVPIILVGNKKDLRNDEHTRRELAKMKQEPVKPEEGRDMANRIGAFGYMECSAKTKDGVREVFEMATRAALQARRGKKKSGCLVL
Summary of the method: as §1

KRas Q61H mutant = test: as above; settings: 20 μM compound; for KRas Q61H mutant + SOS: % inh.: with SOS; for KRas Q61H mutant: % inh.: without SOS
Summary of the method: as §1

JNK phosphorylation = test: JNK Activation Assay (western blot), Panc-1; assay type: cell-based, human; settings: at 10 μM, Panc-1 pancreatic cancer cell line; starred symbols = activation
Summary of the method: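 KRas G12C Panc-1 cells treated 6 h at 37 °C with compound at 10 μM (0.3% DMSO), or serial dilutions for IC50. In Method 1 cells were serum-starved overnight (0.5% FBS) then stimulated with 1.5 ng/ml EGF for 15 min; Method 2 used 10% FBS without stimulation. Phospho-JNK (Thr183/Tyr185) measured by western blot.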

| KRas G12C mutant + SOS: % inh. (KRas G12C mutant) | KRas G12C mutant: % inh. (KRas G12C mutant) | inhibition at 20 µM (Rho-A) | KRas Q61H mutant + SOS: % inh. (KRas Q61H mutant) | KRas Q61H mutant: % inh. (KRas Q61H mutant) | Structure (SMILES) | % inh of JNK in Panc-1 (JNK phosphorylation) |
| --- | --- | --- | --- | --- | --- | --- |
| 0 (0 = 0% inhibition) | 0 (0 = 0% inhibition) | 0% | 0 (0 = 0% inhibition) | 0 (0 = 0% inhibition) | CO[C@H]1CC[C@@H](Nc2nc(-c3nccn3C)nn3cc(-c4ccn(C(C)C)n4)c(C)c23)C1 (racemic) [Compound 1, rac 6-(1-Isopropyl-1H-pyrazol-3-yl)-N-((1R,3S)-3-methoxycyclopentyl)-5-methyl-2-(1-methyl-1H-imidazol-2-yl)pyrrolo[2,1-f][1,2,4]triazin-4-amine] | F* (F* = 31-74% activation) |
| 0 (0 = 0% inhibition) | 0 (0 = 0% inhibition) | 0% | 0 (0 = 0% inhibition) | 0 (0 = 0% inhibition) | COCC1CCN(c2nc(-c3nccn3C)nn3cc(-c4ccn(C(C)C)n4)c(C)c23)C1 (racemic) [Compound 2, rac 6-(1-Isopropyl-1H-pyrazol-3-yl)-4-(3-(methoxymethyl)pyrrolidin-1-yl)-5-methyl-2-(1-methyl-1H-imidazol-2-yl)pyrrolo[2,1-f][1,2,4]triazine] | F* (F* = 31-74% activation) |
| 0 (0 = 0% inhibition) | 0 (0 = 0% inhibition) | 0% | 0 (0 = 0% inhibition) | 0 (0 = 0% inhibition) | COC[C@@H]1CC[C@@H]1CNc1nc(-c2nccn2C)nn2cc(-c3ccn(C(C)C)n3)c(C)c12 (racemic) [Compound 3, rac 6-(1-Isopropyl-1H-pyrazol-3-yl)-N-(((1S,2R)-2-(methoxymethyl)cyclobutyl)methyl)-5-methyl-2-(1-methyl-1H-imidazol-2-yl)pyrrolo[2,1-f][1,2,4]triazin-4-amine] | H* (H* ≥ 100% activation) |
| 0 (0 = 0% inhibition) | 0 (0 = 0% inhibition) | 1 to 25% | 0 (0 = 0% inhibition) | 0 (0 = 0% inhibition) | COC1CCCN(c2nc(-c3nccn3C)nn3cc(-c4ccn(C(C)C)n4)c(C)c23)C1 (racemic) [Compound 4, rac 6-(1-Isopropyl-1H-pyrazol-3-yl)-5-methyl-2-(1-methyl-1H-imidazol-2-yl)-4-(3-(oxo-γ6-methyl)piperidin-1-yl)pyrrolo[2,1-f][1,2,4]triazine] | G* (G* = 75-99% activation) |
| 0 (0 = 0% inhibition) | 0 (0 = 0% inhibition) | 1 to 25% | A (A = 1-25% inhibition) | 0 (0 = 0% inhibition) | CO[C@H]1CC[C@@H](Nc2nc(-c3nccn3C)nn3cc(-c4ccn(C(C)C)n4)c(-c4ccccc4)c23)C1 (racemic) [Compound 18, rac 6-(1-Isopropyl-1H-pyrazol-3-yl)-N-((1R,3S)-3-methoxycyclopentyl)-2-(1-methyl-1H-imidazol-2-yl)-5-phenylpyrrolo[2,1-f][1,2,4]triazin-4-amine hydrochloride] | F* (F* = 31-74% activation) |
| A (A = 1-25% inhibition) | 0 (0 = 0% inhibition) | 1 to 25% | B (B = 26-49% inhibition) | 0 (0 = 0% inhibition) | COCC1CCN(c2nc(-c3nccn3C)nn3cc(-c4ccn(C(C)C)n4)c(-c4ccccc4)c23)C1.Cl (racemic) [Compound 19, rac 6-(1-Isopropyl-1H-pyrazol-3-yl)-4-(3-(methoxymethyl)pyrrolidin-1-yl)-2-(1-methyl-1H-imidazol-2-yl)-5-phenylpyrrolo[2,1-f][1,2,4]triazine hydrochloride salt] | F* (F* = 31-74% activation) |
| 0 (0 = 0% inhibition) | A (A = 1-25% inhibition) | 1 to 25% | 0 (0 = 0% inhibition) | 0 (0 = 0% inhibition) | COC[C@@H]1CC[C@@H]1CNc1nc(-c2nccn2C)nn2cc(-c3ccn(C(C)C)n3)c(-c3ccccc3)c12 (racemic) [Compound 20, rac 6-(1-Isopropyl-1H-pyrazol-3-yl)-N-(((1S,2R)-2-(methoxymethyl)cyclobutyl)methyl)-2-(1-methyl-1H-imidazol-2-yl)-5-phenylpyrrolo[2,1-f][1,2,4]triazin-4-amine] | H* (H* ≥ 100% activation) |
|  |  | 26 to 49% |  |  | COCCNc1nc(-c2nccn2C)nn2cc(-c3ccn(C(C)C)n3)c(C)c12 [Compound 5, 6-(1-Isopropyl-1H-pyrazol-3-yl)-N-(2-methoxyethyl)-5-methyl-2-(1-methyl-1H-imidazol-2-yl)pyrrolo[2,1-f][1,2,4]triazin-4-amine] |  |
| C (C = 50-75% inhibition) | C (C = 50-75% inhibition) | 0% | 0 (0 = 0% inhibition) | 0 (0 = 0% inhibition) | Cc1ccn2nc(-c3nccn3C)nc(N)c12.O=C(O)C(F)(F)F [Compound 37, 5-Methyl-2-(1-methyl-1H-imidazol-2-yl)pyrrolo[2,1-f][1,2,4]triazin-4-amine trifluoroacetic acid salt] |  |
| A (A = 1-25% inhibition) | B (B = 26-49% inhibition) | 0% | 0 (0 = 0% inhibition) | A (A = 1-25% inhibition) | Cn1ccnc1-c1nc(O)c2c(-c3ccccc3)ccn2n1 [Compound 39, 2-(1-Methyl-1H-imidazol-2-yl)-5-phenylpyrrolo[2,1-f][1,2,4]triazin-4-ol] |  |
| A (A = 1-25% inhibition) | A (A = 1-25% inhibition) | 50 to 75% | B (B = 26-49% inhibition) | A (A = 1-25% inhibition) | Cc1c(-c2ccn(C(C)C)n2)cn2nc(-c3nccn3C)nc(Nc3noc(C4CC4)n3)c12 [Compound 75, 5-Cyclopropyl-N-(6-(1-isopropyl-1H-pyrazol-3-yl)-5-methyl-2-(1-methyl-1H-imidazol-2-yl)pyrrolo[2,1-f][1,2,4]triazin-4-yl)-1,2,4-oxadiazol-3-amine] |  |
| 0 (0 = 0% inhibition) | 0 (0 = 0% inhibition) | 1 to 25% | A (A = 1-25% inhibition) | 0 (0 = 0% inhibition) | COCCO[C@H]1C[C@H](Nc2nc(-c3nccn3C)nn3cc(-c4ccn(C(C)C)n4)c(C)c23)C1 [Compound 92, 6-(1-Isopropyl-1H-pyrazol-3-yl)-N-((1r,3r)-3-(2-methoxyethoxy)cyclobutyl)-5-methyl-2-(1-methyl-1H-imidazol-2-yl)pyrrolo[2,1-f][1,2,4]triazin-4-amine] |  |
